Reference: patent publication US9987371B2 (priority 2013, dated 2018)
“Also recorded” adds a separate entry of the source. Read-outs that look alike come from different tables or passages of the source.

Legend:
[1] = tested on: B16-F10 cells; format: cell-based
[2] = tested on: GFP in B16 GFP cells; format: cell-based; details: for Able to transfect?: GFP knockdown at 50 nM; for outcome of screening for GFP siRNA delivery: peptide:polynucleotide ratio between 50:1 and 200:1
[3] = tested on: GFP in B16 GFP cells; format: cell-based
[4] = tested on: Rabbit red blood cells (RBC); assay: RBC hemolysis; format: cell-based
Method: The lytic capacity of liberated p5RHH can be quantified in vitro with red blood cell (RBC) hemolysis assays. When incubated at decreasing pH, the ability of p5RHH/siRNA nanoparticles to lyse RBC is enhanced, due to the release of free p5RHH at pH ≤5.5 (FIG. 210). These assays were performed at 4° C. to decrease the rate of auto-hemolysis observed at higher temperatures.
Rabbit red blood cells (RBC) were isolated from whole blood by centrifugation and washed in PBS 3× before storage at 4° C. Prior to hemolysis studies, RBC were washed 3× in pH appropriate HBSS and diluted 1 to 5000. RBCs in pH-specific buffer were then incubated with p5RHH/siRNA nanoparticles for 12 hours. The RBC remnants were pelleted by centrifugation and the hemoglobin content of the supernatant was measured by UV absorbance at 550 nm. Absorbance values were then normalized against maximum lysis by p5RHH only controls and presented as the average of 3 separate experiments.

[5] = tested on: B16-F10 cells
[6] = tested on: B16 GFP cells; assay: Alamar Blue cell viability of transfected B16 GFP cells; format: cell-based
Method: Cell viability was determined 72 hours post transfection using Alamar Blue (Life technologies). Briefly, Alamar Blue was diluted 1:10 into phenol red free medium and incubated with cells for 2-4 hours. Fluorescence was measured on a fluorescent plate reader with excitation at 570 nm and emission at 585 nm (Varian Cary Eclipse, Agilent Technologies, Santa Clara, Calif.).
B16 GFP cells were transfected with increasing concentrations of p5RHH/siRNA nanoparticles containing GFP-specific or scrambled siRNA. For comparison, B16 GFP cells were also transfected with increasing concentrations of GFP specific or scrambled siRNA using lipofectamine 2000. RNA extracted from transfected cells was analyzed using Northern blot analysis, and normalized viability of transfected B16 cells was determined (FIG. 28).

[7] = all tested doses, Hou et al., 2013; cited from earlier work
[8] = tested on: RAW264.7 cells
[9] = tested on: HUVEC cells
[10] = tested on: B16F10 cells; assay: Acridine orange staining for endosomal/lysosomal disruption; format: cell-based; details: 100 nM siRNA, 12 hours
Method: Endosomal disruption in living cells was observed by acridine orange staining. Cells were first loaded with acridine orange (10 μM, 15 minutes), which fluoresces red at low pH in the endosome but green at cytoplasmic pH. Endosomal disruption can be visualized by an increase in cytoplasmic green fluorescence in the presence of 100 μM chloroquine (FIG. 21F).
B16F10 cells plated on coverslips are loaded with acridine orange at 10 μM for 15 minutes and washed for 3× in PBS before incubation in the presence of p5RHH/siRNA nanoparticles in 10% DMEM at a final siRNA concentration of 100 nM for 12 hours. Alternatively, cells were exposed to chloroquine (Sigma) at 100 μM for 15 minutes prior to imaging. Live cells were visualized by fluorescence microscopy on an Olympus BX610 (Tokyo, Japan).

[11] = tested on: B16F10 cells; assay: Confocal microscopy of cytoplasmic oligonucleotide release in B16 cells; format: cell-based
[12] = charge ratio (+/−) 6:1 (peptide/siRNA 62:1, 28:1 or 50:1 by peptide)
[13] = charge ratio (+/−) 12:1 (peptide/siRNA 124:1, 56:1 or 100:1 by peptide)
[14] = charge ratio (+/−) 24:1 (peptide/siRNA 248:1, 112:1 or 200:1 by peptide)

CCN(c1nc(N)c(C(=O)NC(=N)N)nc1Cl)C(C)C [EIPA]
effect of endocytosis inhibitor on p5RHH/siRNA nanoparticle uptake [1]: dramatically reduces p5RHH/siRNA uptake; also recorded: nearly abolishes nanoparticle uptake

CC[C@H](C)[C@H](NC(=O)CN)C(=O)NCC(=O)N[C@@H](C)C(=O)N[C@H](C(=O)N[C@@H](CC(C)C)C(=O)N[C@@H](CCCCN)C(=O)N[C@H](C(=O)N[C@@H](CC(C)C)C(=O)N[C@H](C(=O)N[C@H](C(=O)NCC(=O)N[C@@H](CC(C)C)C(=O)N1CCC[C@H]1C(=O)N[C@@H](C)C(=O)N[C@@H](CC(C)C)C(=O)N[C@H](C(=O)N[C@@H](CO)C(=O)N[C@@H](Cc1c[nH]c2ccccc12)C(=O)N[C@H](C(=O)N[C@@H](CCCCN)C(=O)N[C@@H](CCCNC(=N)N)C(=O)N[C@@H](CCCCN)C(=O)N[C@@H](CCCNC(=N)N)C(=O)N[C@@H](CCC(N)=O)C(=O)N[C@@H](CCC(N)=O)C(N)=O)[C@@H](C)CC)[C@@H](C)CC)[C@@H](C)O)[C@@H](C)O)C(C)C)C(C)C [Melittin, reference compound]
Able to transfect? [2, 12]: No | Able to transfect? [2, 13]: Toxic | Able to transfect? [2, 14]: Toxic | outcome of screening for GFP siRNA delivery [2]: too toxic

CO/C1=C\C(C)=C\[C@@H](C)[C@@H](O)[C@@H](C)C/C(C)=C/C=C/[C@H](OC)[C@@H]([C@@H](C)[C@@H](O)[C@H](C)[C@@]2(O)C[C@@H](O)[C@H](C)[C@@H](C(C)C)O2)OC1=O [bafilomycin A1, reference compound]
effect of bafilomycin A1 on p5RHH mediated GFP knockdown [2]: near complete loss of GFP knockdown; also recorded: blocks knockdown of GFP | effect of bafilomycin A1 on p5RHH/siRNA uptake [1]: did not impair p5RHH/siRNA uptake; also recorded: does not inhibit uptake

CCN(CC)CCCC(C)Nc1ccnc2cc(Cl)ccc12 (centres unmarked) [chloroquine, reference compound]
effect of chloroquine on p5RHH mediated GFP knockdown [3]: does not improve knockdown

CCCCC[C@@H](O)[C@H]1C(=O)O[C@H](C)[C@@H](O)/C=C/C=C/C=C/C=C/C=C(\C)[C@@H](O)C[C@H](O)C[C@H](O)C[C@H](O)C[C@H](O)C[C@H](O)C[C@@H]1O [filipin]
effect of endocytosis inhibitor on p5RHH/siRNA nanoparticle uptake [1]: no effect; also recorded: do not inhibit

CC[C@H](C)[C@H](NC(=O)[C@H](CC(C)C)NC(=O)[C@H](C)NC(=O)[C@@H]1CCCN1C(=O)[C@H](CC(C)C)NC(=O)CNC(=O)[C@@H](NC(=O)[C@@H](NC(=O)[C@H](CC(C)C)NC(=O)[C@@H](N)C(C)C)[C@@H](C)O)[C@@H](C)O)C(=O)N[C@@H](CO)C(=O)N[C@@H](Cc1c[nH]c2ccccc12)C(=O)N[C@H](C(=O)N[C@@H](CCCNC(=N)N)C(=O)N[C@@H](CCCNC(=N)N)C(=O)N[C@@H](CCCNC(=N)N)C(=O)N[C@@H](Cc1c[nH]cn1)C(=O)N[C@@H](CCCNC(=N)N)C(=O)N[C@@H](CCCNC(=N)N)C(=O)N[C@@H](Cc1c[nH]cn1)C(=O)N[C@@H](CS)C(=O)O)[C@@H](C)CC [p5RHH]
IC50 ([4]; free peptide, normalized to 0.1% Triton-X, read-out: IC50 of RBC lysis): 200 to 400 µM | pH at which hemolysis / hemoglobin release is increased ([4]; p5RHH/siRNA nanoparticles, 4° C.): ≤ 5.5 | nonspecific cytotoxicity (B16 viability) [5]: no effect on B16 viability | decreased B16-F10 viability ([5]; mouse): 60% | cytotoxicity at p5RHH:siRNA ratios up to 200:1 ([6]; Alamar blue, 50 nM siRNA): no sign of cytotoxicity | decrease in cell viability ([6]; highest concentrations tested): ~3% | toxicity by Alamar blue ([6]; siRNA concentrations up to 200 nM): minimal toxicity | cytotoxicity [7]: without significant cytotoxicity | cytotoxicity in RAW264.7 cells [8]: without cytotoxicity | decrease in cell viability [8]: ~5% | cytotoxicity towards HUVEC cells [9]: no cytotoxicity

VLKVLTTLAPALISWIRRRHRRC [p5RH-LL]
Able to transfect? [2, 12]: No | Able to transfect? [2, 13]: Yes | Able to transfect? [2, 14]: No | outcome of screening for GFP siRNA delivery [2]: able to transfect

VLTTGLPALISWIKRKRQQC [Peptide 5C]
Able to transfect? [2, 12]: No | Able to transfect? [2, 13]: No | Able to transfect? [2, 14]: No

VLTTGLPALISWIKRKRQQRWRRRR [p5RWR]
GFP knockdown by western blotting [3]: unable to induce GFP knockdown even in the presence of chloroquine | endosomal disruption (acridine orange release) [10]: cannot | Able to transfect? [2, 12]: No | Able to transfect? [2, 13]: No | Able to transfect? [2, 14]: No | siRNA transfection ability (GFP knockdown) ([2]; flow cytometry, without / with 50 μM chloroquine): unable to initiate GFP knockdown without the aid of chloroquine; also recorded: no siRNA transfection ability | oligonucleotide release into the cytoplasm [11]: do not reach the cytoplasm; also recorded: does not manifest appreciable oligonucleotide release into the cytoplasm

VLTTGLPALISWIRRRHRRC [p5RH]
Able to transfect? [2, 12]: No | Able to transfect? [2, 13]: Yes | Able to transfect? [2, 14]: No | outcome of screening for GFP siRNA delivery [2]: able to transfect
